From patent US20220274947A1, “NOVEL HETEROARYL-TRIAZOLE COMPOUNDS AS PESTICIDES” (Bayer Aktiengesellschaft, priority 2019, published 2022)

Assays:
Format in all cases: in vivo
[1] = test system: Rhipicephalus microplus; experiment: Rhipicephalus (Boophilus) microplus dip test (BOOPMI Dip); conditions: 168 h, application rate 100 ppm, engorged adult female ticks, after 7 days, read-out: activity (efficacy: 100% means all eggs are infertile)
Method: Rhipicephalus (Boophilus) Microplus—Dip Test (BOOPMI Dip)
Test Animal: cattle ticks (Rhipicephalus microplus) strain parkhurst, SP-resistant Solvent: dimethyl sulfoxide
To produce a suitable preparation of active compound, 10 mg of active compound are dissolved in 0.5 mL solvent, and the concentrate is diluted with water to the desired concentration.
This compound solution is pipetted into tubes. 8-10 engorged, adult, female cattle ticks (Rhipicephalus microplus) are placed in perforated tubes. These tubes are immersed in the aqueous compound solution until the ticks are completely moistened. After the liquid has drained off, the ticks are transferred to a filter paper in a plastic tray and stored in a climate chamber.
After 7 days egg deposition of fertile eggs is monitored. Eggs where fertility is not visible are stored in a climate chamber till hatching after about 42 days. An efficacy of 100% means all eggs are infertile; 0% means all eggs are fertile.

[2] = test system: Ctenocephalides felis; experiment: Ctenocephalides felis oral test (CTECFE Oral); conditions: 48 h, read-out: activity (mortality)
In short: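 Percent mortality was recorded 2 days after roughly 20 adult Ctenocephalides felis fed on treated cattle blood. The blood was warmed to 37 °C beneath a parafilm membrane, with the fleas kept at room temperature. Compound was dissolved in DMSO and diluted into the blood to test concentration.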

[3] = test system: Aedes aegypti strain MONHEIM; experiment: Aedes aegypti test (AEDSAE surface treatment & contact assay); conditions: exposure 30 minutes, 24 hours after contact, read-out: efficacy (mortality); for mortality at 4 mg/m2: surface concentration 4 mg/m^2, glazed tile; for mortality at 20 mg/m2: surface concentration 20 mg/m^2, glazed tile
In short: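 Compound dissolved in acetone (2 mg/ml) with 2000 ppm rapeseed oil methyl ester, pipetted onto glazed tile and dried. Adult mosquitoes exposed on the surface for 30 min; percent mortality scored 24 h after contact.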

[4] = test system: Musca domestica strain WHO—N; experiment: Musca domestica test (MUSCDO surface treatment & contact assay); conditions: exposure 30 minutes, 24 hours after contact, read-out: efficacy (mortality); for mortality at 20 mg/m2: surface concentration 20 mg/m^2, glazed tile; for mortality at 4 mg/m2: surface concentration 4 mg/m^2, glazed tile
In short: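 Compound dissolved in acetone (2 mg/ml) with 2000 ppm rapeseed oil methyl ester and pipetted onto glazed tile; after acetone evaporation, adult flies exposed to dried surface for 30 minutes. Mortality (%) scored 24 hours after contact.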

[5] = test system: Rhipicephalus sanguineus; experiment: Rhipicephalus sanguineus in-vitro contact test, adult brown dog ticks (RHIPSA Cont); conditions: 48 h, after 48 hours, read-out: activity (efficacy: 100% means all ticks are dead or moribund); for pest or weed control at 1 µg/cm2, 100 g/ha: application rate 1 μg/cm^2 (=100 g/ha); for pest or weed control at 5 µg/cm2, 500 g/ha: application rate 5 μg/cm^2 (=500 g/ha)
In short: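 Mortality of adult R. sanguineus was judged 48 h after contact with acetone-applied residues on glass tube walls. Ticks that stayed immotile or moved without coordination when heated to 45–50 °C (max 5 min) counted as dead or moribund.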

[6] = test system: Myzus persicae; experiment: Myzus persicae oral test; conditions: 120 h, read-out: activity (mortality)
In short: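 Percent mortality was recorded at day 5, where 0% means no aphids killed. Compound prepared from an acetone concentrate diluted in water and combined with IPL41 medium containing sugar was offered to mixed-stage green peach aphids, which sucked it through a parafilm seal.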

[7] = test system: Anopheles funestus strain FUMOZ-R; experiment: Anopheles funestus test (ANPHFU surface treatment & contact assay); conditions: exposure 30 minutes, 24 hours after contact, read-out: efficacy (mortality); for mortality at 4 mg/m2: surface concentration 4 mg/m^2, glazed tile; for mortality at 20 mg/m2: surface concentration 20 mg/m^2, glazed tile
In short: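 Adult FUMOZ-R mosquitoes were exposed 30 min to glazed tiles treated with compound in acetone plus 2000 ppm rapeseed oil methyl ester, after solvent evaporation. Percent mortality was scored 24 h after contact.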

[8] = test system: Myzus persicae; experiment: Myzus persicae spray test; conditions: in Brassica rapa, foliar, 120 h; for mortality at 500 g/ha: read-out: activity (mortality), application rate 500 g/ha, spray, Chinese cabbage leaf disks, after 5 days; for mortality at 100 g/ha: read-out: activity (mortality), application rate 100 g/ha, spray, Chinese cabbage leaf disks, after 5 days
In short: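 Aphid mortality in % was assessed 5 days after spraying; leaf disks of Brassica pekinensis carrying mixed-instar green peach aphids were treated. Spray preparation: active compound in acetone plus dimethylformamide, diluted with emulsifier-containing water (1000 ppm).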

SMILES	pest or weed control at 100 ppm [1] [%]	mortality at 100 ppm [2] [%]	mortality at 4 mg/m2 [3] [%]	mortality at 20 mg/m2 [3] [%]	mortality at 20 mg/m2 [4] [%]	pest or weed control at 1 µg/cm2, 100 g/ha [5] [%]	pest or weed control at 5 µg/cm2, 500 g/ha [5] [%]	mortality at 4 ppm [6] [%]	mortality at 4 mg/m2 [4] [%]	mortality at 4 mg/m2 [7] [%]	mortality at 20 mg/m2 [7] [%]	mortality at 500 g/ha [8] [%]	mortality at 100 g/ha [8] [%]	mortality at 0.8 ppm [6] [%]
CCc1nc([C@H](C)NC(=O)c2cc(C(F)(F)F)cc(C(F)(F)F)c2)n(-c2ccc(C#N)cn2)n1 [I-1]	100	90	80 to 100	80 to 100	80 to 100	80	100	100	–	–	–	–	–	–
CCc1nc([C@H](C)NC(=O)c2cc(Cl)cc(Cl)c2)n(-c2ccc(C#N)cn2)n1 [I-2]	100	90	–	–	–	–	100	–	80 to 100	–	–	–	–	–
C[C@H](NC(=O)c1cc(Cl)nc(C(F)(F)F)c1)c1ncnn1-c1ccc(C#N)cn1 [II-5]	100	90	80 to 100	80 to 100	80 to 100	100	100	100	80 to 100	80 to 100	80 to 100	90	–	–
C[C@H](NC(=O)c1cc(C(F)(F)F)cc(C(F)(F)F)c1)c1ncnn1-c1ccc(C(=O)N(C)C2CC2)cn1 [II-38, 6-(5-{(1S)-1-[3,5-bis(trifluoromethyl)benzamido]ethyl}-1H-1,2,4-triazol-1-yl)-N-cyclopropyl-N-methylnicotinamide]	80	–	80 to 100	80 to 100	–	100	100	100	–	–	80 to 100	100	100	–
C[C@H](NC(=O)c1cc(Cl)cc(C(F)(F)F)c1)c1ncnn1-c1cc(-n2cncn2)ccn1 [II-43]	100	–	80 to 100	80 to 100	80 to 100	100	100	–	–	–	80 to 100	–	–	–
Cc1nc([C@H](C)NC(=O)c2cc(C#N)cc(C(F)(F)F)c2)n(-c2ccc(C#N)cn2)n1 [II-53]	100	100	80 to 100	80 to 100	80 to 100	80	100	100	80 to 100	–	–	–	100	100
Cc1nc([C@H](C)NC(=O)c2cc(Br)cc(C#N)c2)n(-c2ccc(C#N)cn2)n1 [II-54]	80	90	80 to 100	80 to 100	80 to 100	100	100	100	80 to 100	–	–	–	90	100
Cc1nc([C@H](C)NC(=O)c2cncc(C(F)(F)F)c2)n(-c2ccc(C#N)cn2)n1 [II-63]	100	100	80 to 100	80 to 100	80 to 100	100	100	100	–	–	–	–	100	–
C[C@H](NC(=O)c1cc(C(F)(F)F)cc(C(F)(F)F)c1)c1ncnn1-c1ccc(C(=O)N(C)CC2CC2)cn1 [II-73]	100	–	–	–	–	100	100	100	–	–	–	100	100	–
C[C@H](NC(=O)c1cc(OC(F)F)cc(OC(F)F)c1)c1ncnn1-c1ccc(C#N)cn1 [II-77]	–	100	80 to 100	80 to 100	80 to 100	–	100	100	80 to 100	80 to 100	80 to 100	–	90	90
C[C@H](NC(=O)c1cc(Br)cc(C(F)F)c1)c1ncnn1-c1ccc(C#N)cn1 [II-83]	–	100	80 to 100	80 to 100	80 to 100	100	100	100	80 to 100	80 to 100	80 to 100	–	90	–
Cc1nc([C@H](C)NC(=O)c2cc(C(F)(F)F)cc(C(F)(F)F)c2)n(-c2ccc(C(=O)N(C)C3CC3)cn2)n1 [II-96]	100	100	80 to 100	80 to 100	80 to 100	100	100	100	80 to 100	–	–	–	90	–
CCN(C)C(=O)c1ccc(-n2nc(C)nc2[C@H](C)NC(=O)c2cc(C(F)(F)F)cc(C(F)(F)F)c2)nc1 [II-97]	100	100	–	80 to 100	80 to 100	100	100	100	80 to 100	–	–	–	100	–
